Tests used:
human HCN1 = biological target: T1, human HCN1 (Homo sapiens, UniProt O60741); type: cell-based
T1 construct: expressed in transfected cells; host or cells: HEK-293H
T1 sequence (O60741 1-890): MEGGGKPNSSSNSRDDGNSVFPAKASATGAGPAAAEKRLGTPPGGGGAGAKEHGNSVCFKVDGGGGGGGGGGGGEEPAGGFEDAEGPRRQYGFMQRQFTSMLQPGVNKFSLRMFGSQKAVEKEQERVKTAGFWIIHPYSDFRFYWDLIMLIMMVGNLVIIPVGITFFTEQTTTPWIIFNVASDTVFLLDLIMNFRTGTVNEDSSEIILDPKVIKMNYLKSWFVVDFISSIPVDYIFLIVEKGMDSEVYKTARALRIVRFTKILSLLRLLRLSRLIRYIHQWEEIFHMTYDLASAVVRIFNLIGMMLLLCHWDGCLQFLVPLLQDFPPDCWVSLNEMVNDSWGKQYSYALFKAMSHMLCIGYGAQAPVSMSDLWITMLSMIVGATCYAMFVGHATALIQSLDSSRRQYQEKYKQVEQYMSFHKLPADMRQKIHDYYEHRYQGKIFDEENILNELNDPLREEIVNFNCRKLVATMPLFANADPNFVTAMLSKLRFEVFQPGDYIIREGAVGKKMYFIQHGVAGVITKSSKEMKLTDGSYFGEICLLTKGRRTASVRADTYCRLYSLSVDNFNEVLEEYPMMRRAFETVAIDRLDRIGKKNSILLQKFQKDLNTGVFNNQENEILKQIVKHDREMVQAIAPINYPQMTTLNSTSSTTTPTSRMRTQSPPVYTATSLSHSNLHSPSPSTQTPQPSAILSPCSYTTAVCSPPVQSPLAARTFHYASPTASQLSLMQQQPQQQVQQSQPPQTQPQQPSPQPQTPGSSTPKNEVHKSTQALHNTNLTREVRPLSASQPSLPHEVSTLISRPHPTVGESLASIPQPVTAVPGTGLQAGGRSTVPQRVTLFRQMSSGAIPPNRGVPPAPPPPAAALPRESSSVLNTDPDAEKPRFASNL

HCN3 channel = biological target: T2, HCN3 channel (Homo sapiens, UniProt Q9P1Z3); assay: MPSD FLIPR/FLEX 96 well hyperpolarization assay, HCN3; type: cell-based; details: HCN3 channel expressing HEK-293H cells, ZD7288 30 μM (FIG. 7A)
T2 construct: expressed in transfected cells; host or cells: HEK-293H
T2 sequence (Q9P1Z3 1-774): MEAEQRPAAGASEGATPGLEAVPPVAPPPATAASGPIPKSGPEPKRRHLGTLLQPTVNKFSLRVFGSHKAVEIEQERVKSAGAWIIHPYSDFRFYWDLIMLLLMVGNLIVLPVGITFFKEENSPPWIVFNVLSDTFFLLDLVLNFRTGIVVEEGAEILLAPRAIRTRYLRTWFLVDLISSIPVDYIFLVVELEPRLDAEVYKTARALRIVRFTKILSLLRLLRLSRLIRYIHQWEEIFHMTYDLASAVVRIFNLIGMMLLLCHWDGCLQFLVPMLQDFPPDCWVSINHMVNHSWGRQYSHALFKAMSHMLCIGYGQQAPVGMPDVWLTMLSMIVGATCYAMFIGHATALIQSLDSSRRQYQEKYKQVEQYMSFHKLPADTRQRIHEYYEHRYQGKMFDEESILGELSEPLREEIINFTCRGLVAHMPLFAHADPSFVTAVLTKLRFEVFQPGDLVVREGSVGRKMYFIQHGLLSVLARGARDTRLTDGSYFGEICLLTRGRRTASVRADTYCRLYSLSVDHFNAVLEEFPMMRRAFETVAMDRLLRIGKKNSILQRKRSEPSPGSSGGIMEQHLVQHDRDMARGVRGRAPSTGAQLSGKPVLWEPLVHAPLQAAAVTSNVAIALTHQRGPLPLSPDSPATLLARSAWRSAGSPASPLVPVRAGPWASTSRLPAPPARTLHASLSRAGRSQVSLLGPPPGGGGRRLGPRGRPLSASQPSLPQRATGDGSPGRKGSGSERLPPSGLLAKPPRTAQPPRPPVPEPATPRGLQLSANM
Method: The above-described assay was modified for use with the FLIPR®^96 or FLEX^96 96 well plate format. In brief, cells stably expressing HCN channels were plated at 40-80×10^3 cells/plate in 100-150 μl/well of DMEM supplemented with 10% fetal bovine serum, 1× NEAA, and 1× penicillin/streptomycin. Cells were cultured for 24-48 hours in a 5% CO2/air humidifiedincubator at 37° C. Cells were incubated in 30 μl/well of HBSS containing MPSD, as described above, for 15-45 minutes at room temperature.
Membrane potentials were measured at room temperature (21°-23°) using a FLIPR® system or a FLEXSTATION® (Molecular Devices of Sunnydale, Calif.). Control cells were incubated in HBSS/MPSD without a test agent. For identification of HCN channel modulators, cells were incubated in HBSS/MPSD and the presence of a test agent as described in Examples 5 and 6 herein below. […]
Cells were incubated in 30 μl HBSS supplemented with MPSD with or without 50 μM of the channel inhibitor ZD7288, dissolved in <1.0% dimethyl sulfoxide (DMSO) added to the HBSS solution. […] The change in fluorescence (ΔF) was measured for a total assay time of about 100 seconds. […]
FIG. 6A depicts the whole-plate screenshot of the changes in fluorescence/membrane potential over time. FIG. 7A depicts the change in fluorescence (F) over time for control cells (upper trace) and for cells exposed to ZD7288 at a concentration of 30 μM (lower trace). […]

CCN(c1ccccc1)c1cc(=NC)n(C)c(C)n1.Cl [ZD7288]
reversal of hyperpolarization induced by low sodium/potassium diluent (human HCN1): reversed
blockade of hyperpolarization (change in fluorescence) (HCN3 channel): effectively blocked hyperpolarization
